Measured values taken from patent publication US20240101570A1 (AMGEN INC., priority 2020, published 2024).
pIC50: −log10 of the molar value. Read-outs that look alike come from different tables or passages of the source.

Legend:
HCT116 MTAP null cells = assay: HCT116 MTAP null cell proliferation / viability (CellTiter-Glo, 6 days); type: cell-based; settings: for pIC50: HCT116 MTAP null cells, 6 days, CellTiter-Glo, read-out: HCT-116 MTAP null IC50; for potency of enantiomer relative to the other enantiomer, measured by IC50 in HCT116 MTAP null cell viability assay: comparison of the two SFC-separated enantiomers
Description: (§1) HCT116 MTAP null and WT cells were seeded in 96-well tissue culture plates in RPMI 1640 media+10% fetal bovine serum. Plates were incubated overnight at 37° C. and 5% CO2. Cells were then treated with an 8- or 9-point serial dilution of compound, using a top concentration of 1, or 10 μM, 1:3 serial dilution steps and, a DMSO-only control. Cells were incubated in the presence of drug for 6 days. Effects on cell viability were measured with the CellTiter-Glo® Luminescent Cell Viability Assay (Promega) per manufacturer's recommendation. Assay plates were read on an EnVision™ Multilabel Reader using the Ultra-Sensitive luminescence module. IC50 values were calculated with GraphPad Prism v 5.01 using symmetrical sigmoidal dose-response least squares fit with Hill slope fixed to −1 and top constrain to 100% or GeneData Screener using a 4-parameter logistic model to fit dose response curves.
(§2) Alternatively, compounds could be assayed with a 384 well plate format:
(§3) Compounds were pre-spotted into 384 well plates with a 22-point serial dilution of compound, using a top concentration of 10 or 50 μM, 1:2 serial dilution steps and, a DMSO-only control. HCT116 MTAP null and WT cells were then seeded as above and after 6 days effects on cell viability were measured with the CellTiter-Glo® Luminescent Cell Viability Assay (Promega). Assay plates were read as above and IC50 values were calculated with GeneData Screener using a 4-parameter logistic model to fit dose response curves. The reported IC50 represents the value where the curve transits 50% of control.

HCT116 WT cells = assay: HCT116 WT cell proliferation / viability (CellTiter-Glo, 6 days); type: cell-based; settings: HCT116 WT cells, 6 days, CellTiter-Glo, read-out: HCT-116 WT IC50
Description: as §1, §2, §3

Structure (SMILES) | pIC50 (HCT116 MTAP null cells; HCT116-MTAP null, 144 h) | pIC50 (HCT116 WT cells; Homo sapiens, HCT-116, 144 h) | potency of enantiomer relative to the other enantiomer, measured by IC50 in HCT116 MTAP null cell viability assay (HCT116 MTAP null cells) | pIC50 (HCT116 MTAP null cells) | pIC50 (HCT116 WT cells)
CC(c1ccc(C(F)(F)F)cn1)N(C)C(=O)c1cnc2nc(N)c3c(c2c1)COC3 (racemic) [Example 700, 4-amino-N-methyl-N-((1R)-1-(5-(trifluoromethyl)-2-pyridinyl)ethyl)-1,3-dihydrofuro[3,4-c][1,8]naphthyridine-8-carboxamide and 4-amino-N-methyl-N-((1S)-1-(5-(trifluoromethyl)-2-pyridinyl)ethyl)-1,3-dihydrofuro[3,4-c][1,8]naphthyridine-8-carboxamide] | 5.96 | < 5.00 | – | – | –
CCN(C(=O)c1cnc2nc(N)c3c(c2c1)COC3)C(C)c1ccc(C(F)(F)F)cn1 (racemic) [Example 705, 4-amino-N-ethyl-N-((1R)-1-(5-(trifluoromethyl)-2-pyridinyl)ethyl)-1,3-dihydrofuro[3,4-c][1,8]naphthyridine-8-carboxamide and 4-amino-N-ethyl-N-((1S)-1-(5-(trifluoromethyl)-2-pyridinyl)ethyl)-1,3-dihydrofuro[3,4-c][1,8]naphthyridine-8-carboxamide] | 6.20 | 4.55 | – | – | –
CC(c1ccc(C(F)(F)F)cn1)N(C)C(=O)c1cc2c3c(c(N)nc2cn1)COC3 (racemic) [Example 709, 4-amino-N-methyl-N-((1R)-1-(5-(trifluoromethyl)-2-pyridinyl)ethyl)-1,3-dihydrofuro[3,4-c][1,7]naphthyridine-8-carboxamide and 4-amino-N-methyl-N-((1S)-1-(5-(trifluoromethyl)-2-pyridinyl)ethyl)-1,3-dihydrofuro[3,4-c][1,7]naphthyridine-8-carboxamide] | 7.12 | 5.37 | – | – | –
CC(c1ccc(C(F)(F)F)cn1)N(C)C(=O)c1ccc2nc(N)c3c(cnn3C)c2c1 (racemic) [Example 716, 4-amino-N,3-dimethyl-N-((1R)-1-(5-(trifluoromethyl)-2-pyridinyl)ethyl)-3H-pyrazolo[3,4-c]quinoline-8-carboxamide and 4-amino-N,3-dimethyl-N-((1S)-1-(5-(trifluoromethyl)-2-pyridinyl)ethyl)-3H-pyrazolo[3,4-c]quinoline-8-carboxamide] | 6.04 | 4.48 | – | – | –
CCN(C(=O)c1cc2c3c(c(N)nc2cc1F)COC3)C(C)c1ccc(C(F)(F)F)cn1 (racemic) [Example 719, 4-amino-N-ethyl-7-fluoro-N-((1R)-1-(5-(trifluoromethyl)-2-pyridinyl)ethyl)-1,3-dihydrofuro[3,4-c]quinoline-8-carboxamide and 4-amino-N-ethyl-7-fluoro-N-((1S)-1-(5-(trifluoromethyl)-2-pyridinyl)ethyl)-1,3-dihydrofuro[3,4-c]quinoline-8-carboxamide] | 5.99 | 4.66 | – | – | –
CC(c1ncc(F)cn1)N(CCOC(F)(F)F)C(=O)c1cc2c3c(c(N)nc2cc1F)COC3 (racemic) [Example 725, 4-amino-7-fluoro-N-((1R)-1-(5-fluoro-2-pyrimidinyl)ethyl)-N-(2-(trifluoromethoxy)ethyl)-1,3-dihydrofuro[3,4-c]quinoline-8-carboxamide and 4-amino-7-fluoro-N-((1S)-1-(5-fluoro-2-pyrimidinyl)ethyl)-N-(2-(trifluoromethoxy)ethyl)-1,3-dihydrofuro[3,4-c]quinoline-8-carboxamide] | 6.07 | < 4.30 | – | – | –
CCN(C(=O)c1cc2c3c(c(N)nc2cc1Cl)COC3)C(C)c1ccc(Cl)nc1 (racemic) [Example 737, 4-amino-7-chloro-N-((1R)-1-(6-chloro-3-pyridinyl)ethyl)-N-ethyl-1,3-dihydrofuro[3,4-c]quinoline-8-carboxamide and 4-amino-7-chloro-N-((1S)-1-(6-chloro-3-pyridinyl)ethyl)-N-ethyl-1,3-dihydrofuro[3,4-c]quinoline-8-carboxamide] | 7.23 | 5.62 | – | – | –
CN(C(=O)c1cc2c3c(c(N)nc2cn1)COC3)C(c1ccc(C(F)(F)F)cn1)C1CC1 (racemic) [Example 764, 4-amino-N-((R)-cyclopropyl(5-(trifluoromethyl)-2-pyridinyl)methyl)-N-methyl-1,3-dihydrofuro[3,4-c][1,7]naphthyridine-8-carboxamide and 4-amino-N-((S)-cyclopropyl(5-(trifluoromethyl)-2-pyridinyl)methyl)-N-methyl-1,3-dihydrofuro[3,4-c][1,7]naphthyridine-8-carboxamide] | 5.20 | < 4.30 | – | – | –
CC(c1ccc(F)cn1)N(C)C(=O)c1cc2c3c(c(N)nc2cc1Cl)COC3 (racemic) [Example 772, 4-amino-7-chloro-N-((1R)-1-(5-fluoro-2-pyridinyl)ethyl)-N-methyl-1,3-dihydrofuro[3,4-c]quinoline-8-carboxamide and 4-amino-7-chloro-N-((1S)-1-(5-fluoro-2-pyridinyl)ethyl)-N-methyl-1,3-dihydrofuro[3,4-c]quinoline-8-carboxamide] | 6.43 | 4.74 | – | – | –
CC1OCc2c1c(N)nc1ccc(C(=O)N(Cc3ccc(C(F)(F)F)cn3)[C@H]3C[C@@H]3C(F)(F)F)cc21 (mixture of isomers) [Example 910, 4-amino-3-methyl-N-((1R,2R)-2-(trifluoromethyl)cyclopropyl)-N-((5-(trifluoromethyl)-2-pyridinyl)methyl)-1,3-dihydrofuro[3,4-c]quinoline-8-carboxamide and 4-amino-3-methyl-N-((1S,2S)-2-(trifluoromethyl)cyclopropyl)-N-((5-(trifluoromethyl)-2-pyridinyl)methyl)-1,3-dihydrofuro[3,4-c]quinoline-8-carboxamide] | 7.66 | 5.52 | – | – | –
CC(C)CN(Cc1ccc(C(F)(F)F)cn1)C(=O)c1ccc2nc(N)c3c(c2c1)CO[C@H]3CO (single isomer, unassigned) [Example 579] | 6.46 | 5.25 | – | – | –

More lines, now with the values ahead:

pIC50 (HCT116 MTAP null cells; HCT116-MTAP null, 144 h) | pIC50 (HCT116 WT cells; Homo sapiens, HCT-116, 144 h) | potency of enantiomer relative to the other enantiomer, measured by IC50 in HCT116 MTAP null cell viability assay (HCT116 MTAP null cells) | pIC50 (HCT116 MTAP null cells) | pIC50 (HCT116 WT cells) | Structure (SMILES)
6.92 | 5.35 | – | – | – | CC(c1ccc(C(F)(F)F)cn1)N(C)C(=O)c1ccc2nc(N)c3c(c2c1)COC3 (racemic) [Example 697, 4-amino-N-methyl-N-((1R)-1-(5-(trifluoromethyl)-2-pyridinyl)ethyl)-1,3-dihydrofuro[3,4-c]quinoline-8-carboxamide and 4-amino-N-methyl-N-((1S)-1-(5-(trifluoromethyl)-2-pyridinyl)ethyl)-1,3-dihydrofuro[3,4-c]quinoline-8-carboxamide]
6.55 | 4.91 | – | – | – | CCN(C(=O)c1ccc2nc(N)c3c(c2c1)COC3)C(C)c1ccc(Cl)nc1 (racemic) [Example 727, 4-amino-N-((1R)-1-(6-chloro-3-pyridinyl)ethyl)-N-ethyl-1,3-dihydrofuro[3,4-c]quinoline-8-carboxamide and 4-amino-N-((1S)-1-(6-chloro-3-pyridinyl)ethyl)-N-ethyl-1,3-dihydrofuro[3,4-c]quinoline-8-carboxamide]
7.15 | 5.65 | – | – | – | CCN(C(=O)c1cc2c3c(c(N)nc2cc1F)COC3)C(C)c1ccc(Cl)nc1 (racemic) [Example 739, 4-amino-N-((1R)-1-(6-chloro-3-pyridinyl)ethyl)-N-ethyl-7-fluoro-1,3-dihydrofuro[3,4-c]quinoline-8-carboxamide and 4-amino-N-((1S)-1-(6-chloro-3-pyridinyl)ethyl)-N-ethyl-7-fluoro-1,3-dihydrofuro[3,4-c]quinoline-8-carboxamide]
5.49 | < 5.00 | more potent | – | – | C[C@H](CF)N(Cc1ccc(C#N)cn1)C(=O)c1ccc2nc(N)c3c(c2c1)COC3 (single isomer, unassigned) [Example 577]
6.47 | 5.31 | less potent | – | – | C[C@@H](CF)N(Cc1ccc(C#N)cn1)C(=O)c1ccc2nc(N)c3c(c2c1)COC3 (single isomer, unassigned) [Example 578]
6.49 | 4.97 | – | – | – | CC(C)CN(Cc1ccc(C(F)(F)F)cn1)C(=O)c1ccc2nc(N)c3c(c2c1)CO[C@@H]3CO (single isomer, unassigned) [Example 580]
6.09 | 4.99 | – | – | – | N#CC[C@H](C1CC1)N(Cc1ccc(C#N)cn1)C(=O)c1ccc2nc(N)c3c(c2c1)COC3 (single isomer, unassigned) [Example 581]
7.44 | 6.25 | – | – | – | N#CC[C@@H](C1CC1)N(Cc1ccc(C#N)cn1)C(=O)c1ccc2nc(N)c3c(c2c1)COC3 (single isomer, unassigned) [Example 582]
– | – | – | 6.76 | 5.32 | CO[C@@H]1CCOC[C@H]1N(Cc1ccc(C#N)c(C)n1)C(=O)c1ccc2nc(N)c3c(c2c1)COC3 (single isomer, unassigned) [Example 583]
7.85 | 6.79 | – | – | – | CO[C@@H]1COCC[C@H]1N(Cc1ccc(C(F)(F)F)cn1)C(=O)c1ccc2nc(N)c3c(c2c1)COC3 (single isomer, unassigned) [Example 584]
